As a reminder, the pIC50 is the IC50 on a negative log10 scale, so that one unit is a factor of ten.

Among the data in ChEMBL document CHEMBL3886972, “Chemical entities” (2016) are IC50 values, retold here.

In test [1] the target is PI3-kinase p110-alpha/p85-alpha (Homo sapiens, UniProt P42336). Description: null: The kinase activity was measured by using the commercial ADP Hunter Plus assay available from DiscoveRx (#33-016), which is a homogeneous assay to measure the accumulation of ADP, a universal product of kinase activity. […] The reaction was carried out for 1 hour at 25° C. Reagent A and B were sequentially added to the wells and plates were incubated for 30 min at 37° C. Fluorescence counts were read in a Victor instrument (Perkin Elmer) with the recommended settings (544 and 580 nm as excitation and emission wavelengths, respectively). The test is classed as protein-complex assay.
Sequence of PI3-kinase p110-alpha/p85-alpha (P27986 whole entry): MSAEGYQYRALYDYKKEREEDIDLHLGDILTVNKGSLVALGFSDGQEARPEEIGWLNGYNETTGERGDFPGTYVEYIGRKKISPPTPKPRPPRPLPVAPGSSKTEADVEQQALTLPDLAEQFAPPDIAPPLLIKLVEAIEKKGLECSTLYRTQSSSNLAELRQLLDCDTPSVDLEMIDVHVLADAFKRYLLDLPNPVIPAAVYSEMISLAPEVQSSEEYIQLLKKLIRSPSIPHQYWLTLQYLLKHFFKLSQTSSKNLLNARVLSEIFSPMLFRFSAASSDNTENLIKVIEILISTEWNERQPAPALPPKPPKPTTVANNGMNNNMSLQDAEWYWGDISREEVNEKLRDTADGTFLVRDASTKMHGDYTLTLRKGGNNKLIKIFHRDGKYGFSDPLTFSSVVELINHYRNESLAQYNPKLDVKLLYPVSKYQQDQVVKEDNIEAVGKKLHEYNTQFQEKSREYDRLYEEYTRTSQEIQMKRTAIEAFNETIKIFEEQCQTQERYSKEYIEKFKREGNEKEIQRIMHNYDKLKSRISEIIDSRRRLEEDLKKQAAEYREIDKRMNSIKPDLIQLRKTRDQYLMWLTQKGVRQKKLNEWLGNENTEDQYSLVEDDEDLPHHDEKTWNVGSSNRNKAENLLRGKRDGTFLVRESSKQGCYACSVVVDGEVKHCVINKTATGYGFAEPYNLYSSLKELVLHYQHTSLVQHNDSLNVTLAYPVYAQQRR
Sequence of PI3-kinase p110-alpha/p85-alpha (P42336 whole entry): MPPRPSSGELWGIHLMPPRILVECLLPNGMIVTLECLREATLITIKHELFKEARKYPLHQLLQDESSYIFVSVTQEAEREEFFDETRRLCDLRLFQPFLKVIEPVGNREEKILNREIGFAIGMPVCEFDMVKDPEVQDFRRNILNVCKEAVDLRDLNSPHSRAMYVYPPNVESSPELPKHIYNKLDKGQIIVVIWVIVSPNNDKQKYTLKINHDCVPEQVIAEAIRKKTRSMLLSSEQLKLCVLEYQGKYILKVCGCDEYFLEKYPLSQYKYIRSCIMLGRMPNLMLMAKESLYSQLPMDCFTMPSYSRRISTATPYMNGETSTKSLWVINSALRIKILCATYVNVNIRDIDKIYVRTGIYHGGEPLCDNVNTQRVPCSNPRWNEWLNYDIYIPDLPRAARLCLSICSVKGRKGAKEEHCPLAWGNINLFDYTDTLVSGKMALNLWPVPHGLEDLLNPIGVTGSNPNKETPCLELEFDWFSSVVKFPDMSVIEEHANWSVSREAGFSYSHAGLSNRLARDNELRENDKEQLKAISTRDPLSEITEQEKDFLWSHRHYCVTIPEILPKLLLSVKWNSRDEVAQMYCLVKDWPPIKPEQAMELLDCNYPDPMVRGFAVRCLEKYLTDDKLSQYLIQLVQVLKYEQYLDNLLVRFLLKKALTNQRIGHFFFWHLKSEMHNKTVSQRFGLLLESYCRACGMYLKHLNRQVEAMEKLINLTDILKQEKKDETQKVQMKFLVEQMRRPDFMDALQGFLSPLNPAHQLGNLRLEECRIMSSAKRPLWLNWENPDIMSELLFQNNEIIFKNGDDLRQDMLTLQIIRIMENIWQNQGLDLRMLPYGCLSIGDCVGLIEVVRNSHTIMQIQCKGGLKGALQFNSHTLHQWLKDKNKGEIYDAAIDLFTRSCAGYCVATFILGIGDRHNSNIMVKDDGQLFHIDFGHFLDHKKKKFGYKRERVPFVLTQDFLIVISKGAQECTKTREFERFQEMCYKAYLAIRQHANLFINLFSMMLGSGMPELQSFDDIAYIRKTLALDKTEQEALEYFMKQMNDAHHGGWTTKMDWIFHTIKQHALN

The target of test [2] is DNA-dependent protein kinase catalytic subunit (Homo sapiens, UniProt P78527). The experiment in a line: ADP Hunter Plus Assay: The kinase activity was measured by using the commercial ADP Hunter Plus assay available from DiscoveRx (#90-0083), which is a homogeneous assay to measure the accumulation of ADP, a universal product of kinase activity. The enzyme, DNA-PK was purchased from Promega (#V5811). The assay was done following the manufacturer recommendations with slight modifications: Mainly the kinase buffer was replace by 15 mM HEPES, pH 7.5, 10 mM MgCl2, 20 mM NaCl, 1 mM EGTA, 0.1 mg/mL BGG, 0.02% Tween 20. The DNA-PK was assayed in a titration experiment to determine the optimal protein concentration for the inhibition assay. To calculate the […] of the Compounds, serial 1:3 dilutions of the compounds were added to the enzyme at a fixed concentration (2 U/uL). The enzyme was preincubated with the inhibitor and 200 uM DNA substrate and then ATP was added to a final 75 uM concentration. Reaction was carried out for 1 hour at 37° C. Reagent A and B were sequentially added to the wells and plates were incubated for 30 min at RT. Fluorescence counts were read in a EnVision instrument (Perkin Elmer) with the recommended settings (550 and 590 nm as excitation and emission wavelengths, respectively).

Molecules are shown by their SMILES. pIC50: −log10 of the molar value.

Regarding `CS(=O)(=O)C1(c2nc(-c3cccc4[nH]ccc34)nc3c2OC[C@@H]2COCCN32)CCC1`, the pIC50 is 5.50 in test [1] and 5.00 in test [2]. With `CS(=O)(=O)C1(c2nc(-c3cccc4[nH]ccc34)nc3c2OC[C@H]2COCCN32)CCOCC1`, the pIC50 in test [1] is 4.94. Take `CS(=O)(=O)C1(c2nc(-c3cccc4[nH]ccc34)nc3c2OCC[C@@H]2COCCN32)CCOCC1`: the results for the pIC50 in test [1] and in test [2] were at most 4.30 and at most 4.60, respectively.

On to `CS(=O)(=O)C1(c2nc(-c3cccc4[nH]ccc34)nc3c2OC[C@@H]2COCCN32)CCNCC1`, for which the pIC50 in test [1] was 5.70; in test [2] it was 5.31. Consider `COc1cc(-c2nc3c(c(C4(S(C)(=O)=O)CCOCC4)n2)OCC2COCCN32)c2cc[nH]c2c1` (stereo not given), for which the pIC50 in test [1] was 5.30; in test [2], 5.00. For `CNc1nc2ccccc2n1-c1nc2c(c(C(C)(C)S(C)(=O)=O)n1)OC[C@@H]1COCCN21`, the pIC50 was 5.72 in test [1] and 5.82 in test [2]. Regarding `CNc1nc2ccccc2n1-c1nc2c(c(C(C)(C)[S@TB1](C)(=O)=O)n1)OCCC1COCCN21` (stereo not given), in test [2], the pIC50 is 5.73. For the compound `CS(=O)(=O)C1(c2nc(-c3cccc4[nH]ccc34)nc3c2OC[C@@H]2COCCN32)CCOCC1`, the pIC50 in test [1] was 5.31. In the case of `CNc1nc2ccccc2n1-c1nc2c(c(C3(S(C)(=O)=O)CCOCC3)n1)OCCC1COCCN21` (stereo not given), the negative logarithm of the IC50 (pIC50) in test [1] is at most 4.30; in test [2] it was 5.00. For the compound `CS(=O)(=O)C1(c2nc(-c3cc(F)cc4[nH]ccc34)nc3c2OCC2COCCN32)CCOCC1` (stereo not given), the pIC50 in test [1] was 5.22; in test [2], 5.00. As to `COc1ccc(-c2nc3c(c(C4(S(C)(=O)=O)CCOCC4)n2)OCC2COCCN32)c2cc[nH]c12` (stereo not given), the pIC50 in test [1] is 4.77; in test [2] it was at most 4.60. Take `CS(=O)(=O)c1cccc(-c2nc(-c3cccc4[nH]ccc34)nc3c2OCC2COCCN32)c1` (stereo not given): the pIC50 in test [1] was 4.97; in test [2], 5.30. As for `CC(C)(c1nc(-c2cccc3[nH]ncc23)nc2c1OC[C@H]1COCCN21)S(C)(=O)=O`, the pIC50 in test [1] was 6.40; in test [2], 5.38. Taken in the same sequence, the figures for `CNc1nc2ccccc2n1-c1nc2c(c(C(C)(C)O)n1)OCC1COCCN21` (stereo not given) were 5.66 and 5.50. With `CCNc1nc2ccccc2n1-c1nc2c(c(C(C)(C)S(C)(=O)=O)n1)OC[C@@H]1COCCN21`, the pIC50 is 5.58 in test [1] and 6.71 in test [2]. The corresponding values for `CC1(c2nc(-c3cccc4[nH]ccc34)nc3c2OCC2COCCN32)CCCS1(=O)=O` (stereo not given) are 5.16 and 5.00. On to `CS(=O)(=O)C1(c2nc(-c3cccc4[nH]ccc34)nc3c2OCC2COCCN32)CC1` (stereo not given), for which the pIC50 is 5.60 in test [1] and at most 4.60 in test [2]. `CS(=O)(=O)C1(c2nc(-c3c(F)ccc4[nH]ccc34)nc3c2OCC2COCCN32)CCOCC1` (stereo not given): the pIC50 is 4.68 in test [1] and 5.00 in test [2]. As for `CS(=O)(=O)Cc1nc(-c2cccc3[nH]ccc23)nc2c1OCC1COCCN21` (stereo not given), the pIC50 in test [1] was 5.18; in test [2], 5.00. As to `C[S@TB17](=O)(=O)Nc1nc(-c2cccc3[nH]ccc23)nc2c1OCC1COCCN21` (stereo not given), the values for the pIC50 in test [1] and in test [2] were 5.16 and 5.00, respectively. Consider `CC(C)(c1nc(-c2cccc3[nH]ccc23)nc2c1OCC1COCCN21)S(=O)(=O)C1CC1` (stereo not given), for which the pIC50 in test [1] is 5.62. As to `CCOC(=O)N1CCC(c2nc(-c3cccc4[nH]ccc34)nc3c2OC[C@@H]2COCCN32)(S(C)(=O)=O)CC1`, the pIC50 in test [1] is 5.13; in test [2], 5.00. The corresponding values for `CC(C)Nc1nc2ccccc2n1-c1nc2c(c(C(C)(C)S(C)(=O)=O)n1)OC[C@@H]1COCCN21` are 5.18 and 5.37. With `CC(C)(c1nc(-c2cccc3[nH]ccc23)nc2c1OCC1COCCN21)S(C)(=O)=O` (stereo not given), the results for the pIC50 in test [1] and in test [2] were 5.77 and 4.76, respectively. With `CS(=O)(=O)C1(c2nc(-c3cccc4[nH]ccc34)nc3c2OCC2COCCN32)CCOCC1` (stereo not given), in test [1], the pIC50 was 4.88. Regarding `O=S(=O)(Cc1nc(-c2cccc3[nH]ccc23)nc2c1OCC1COCCN21)C(F)(F)F` (stereo not given), the pIC50 in test [1] is 4.83; in test [2], at most 4.60. `C[S@TB17](=O)(=O)C1(c2nc(-c3cc(F)cc4[nH]ccc34)nc3c2OCCC2COCCN32)CCOCC1` (stereo not given): the pIC50 is under 5.00 in test [1] and at most 4.60 in test [2]. On to `CC(C)(c1nc(-c2c(F)ccc3[nH]ccc23)nc2c1OCC1COCCN21)S(C)(=O)=O` (stereo not given), for which, in test [1], the pIC50 was 5.10. On to `CC(C)(c1nc(-c2cccc3[nH]ccc23)nc2c1OCC[C@H]1COCCN21)S(C)(=O)=O`, for which the pIC50 in test [1] is 4.71. Regarding `COc1cc(-c2nc3c(c(C4([S@TB1](C)(=O)=O)CCOCC4)n2)OCCC2COCCN32)c2cc[nH]c2c1` (stereo not given), the pIC50 in test [1] is 4.63; in test [2], at most 4.60.

Take `CC(C)(C#N)c1nc(-c2cccc3[nH]ccc23)nc2c1OCC1COCCN21` (stereo not given): the pIC50 in test [1] was 5.78; in test [2] it was 5.00. Regarding `CC(C)(O)c1nc(-c2cccc3[nH]ccc23)nc2c1OCC1COCCN21` (stereo not given), the pIC50 in test [1] was 5.62; in test [2], 5.14. For the compound `CNc1nc2cc(Cl)ccc2n1-c1nc2c(c(C3(S(C)(=O)=O)CCC3)n1)OC[C@@H]1COCCN21`, the pIC50 in test [1] is at most 4.30; in test [2], 5.00. Consider `CS(=O)(=O)C1(c2nc(-c3ccnc4[nH]ccc34)nc3c2OCC2COCCN32)CCOCC1` (stereo not given), for which the pIC50 in test [1] was 5.07; in test [2], 5.00. The corresponding values for `Cc1cc2c(-c3nc4c(c(C5(S(C)(=O)=O)CCOCC5)n3)OCC3COCCN43)cccc2[nH]1` (stereo not given) are 4.99 and at most 4.60.

Take `CNc1nc2ccc(Cl)cc2n1-c1nc2c(c(C3(S(C)(=O)=O)CCC3)n1)OC[C@@H]1COCCN21`: the pIC50 was at most 4.30 in test [1] and 5.00 in test [2].

As for `CC(C)(c1nc(-c2ccnc3[nH]ccc23)nc2c1OCC1COCCN21)S(C)(=O)=O` (stereo not given), the pIC50 in test [1] is 6.17; in test [2] it was 5.55. Consider `CNc1nc2ccccc2n1-c1nc2c(c(C3(S(C)(=O)=O)CCOCC3)n1)OCC1COCCN21` (stereo not given), for which the results for the pIC50 in test [1] and in test [2] were at most 4.30 and 5.00, respectively.

Take `CCCNc1nc2ccccc2n1-c1nc2c(c(C(C)(C)S(C)(=O)=O)n1)OC[C@@H]1COCCN21`: the pIC50 in test [1] is 5.20; in test [2], 5.18.

In the case of `CN1CCC(c2nc(-c3cccc4[nH]ccc34)nc3c2OCC2COCCN32)(S(C)(=O)=O)CC1` (stereo not given), the values for the pIC50 in test [1] and in test [2] were 4.90 and at most 4.60, respectively. Take `CS(=O)(=O)C1(c2nc(-c3cncc4[nH]ccc34)nc3c2OCC2COCCN32)CCOCC1` (stereo not given): the values for the pIC50 in test [1] and in test [2] were 5.70 and at most 4.60, respectively.

As for `CNc1nc2ccccc2n1-c1nc2c(c(C(C)(C)S(C)(=O)=O)n1)OCC1COCCN21` (stereo not given), the pIC50 in test [1] is 5.55. On to `c1cc(-c2nc(-c3cccc4[nH]ccc34)c3c(n2)N2CCOCC2CO3)c2cc[nH]c2c1` (stereo not given), for which the pIC50 in test [1] was 5.18; in test [2], 5.00. For the compound `CC(C)(O)c1nc(-c2cc(F)cc3[nH]ccc23)nc2c1OC[C@@H]1COCCN21`, the values for the pIC50 in test [1] and in test [2] were 5.64 and 6.05, respectively.
